Several values for one entry are separate records, joined by “and”; a condition that tells them apart may be missing. Equal entries are not always repeated. Inconclusive results and toxic doses are left out. The calls were made as follows: active = survival T/C of 150% or more; inactive = T/C below 125% in these data. Starred links: 1 amine or outer side, 2 acyl side, 3 side chain; linkers in the order of their positions; H or OH if unused. Positions of bridges follow the written chain, without caps; N, C: chain ends. Non-standard residues stand in square brackets, D forms with d. Residues, ends and D or L forms follow the SMILES beside them. Chains are numbered I, II in the order given. Actinocin(9to1) = Cc1c2oc3c(C)ccc(C(=O)[*:1])c3nc-2c(C(=O)[*:2])c(N)c1=O; aThr = C[C@H](O)[C@H](N)C(=O)O; NMeV = CN[CH](C(=O)O)C(C)C; Sar = CNCC(=O)O
System: BALB/c mice, Madison 109 lung carcinoma i.m., survival
Test: NCI In Vivo Anticancer Drug Screen. Data for tumor model Madison 109 Lung Carcinoma (intramuscular) in BALB/CM mice
Conditions: endpoint: median survival time, higher = longer survival
Experimental: The antitumor activity of compounds was measured in mice bearing transplantable tumors. Survival or tumor size were measured and the results are expressed as the measurement made in the treated group (T) divided by the measurement made in the vehicle treated control group (C). The tumor model used in this assay is Madison 109 Lung Carcinoma (intramuscular) in BALB/CM mice

[1] = dose: 0.12 mg/kg/injection, schedule: Q01DX009 (ip), vehicle: saline
[2] = dose: 0.12 mg/kg/injection, schedule: Q01DX009 (ip), vehicle: water
[3] = dose: 0.25 mg/kg/injection, schedule: Q01DX009 (ip), vehicle: saline
[4] = dose: 0.5 mg/kg/injection, schedule: Q01DX009 (ip), vehicle: saline
[5] = dose: 0.5 mg/kg/injection, schedule: Q01DX009 (ip), vehicle: water
[6] = dose: 1.0 mg/kg/injection, schedule: Q01DX009 (ip), vehicle: saline
[7] = dose: 5.0 mg/kg/injection, schedule: Q01DX009 (ip), vehicle: saline with Tween-80
[8] = dose: 10.0 mg/kg/injection, schedule: Q01DX009 (ip), vehicle: saline with Tween-80
[9] = dose: 20.0 mg/kg/injection, schedule: Q01DX009 (ip), vehicle: saline with Tween-80
[10] = dose: 40.0 mg/kg/injection, schedule: Q01DX009 (ip), vehicle: saline with Tween-80
[11] = dose: 80.0 mg/kg/injection, schedule: Q01DX009 (ip), vehicle: saline with Tween-80
[12] = dose: 12.5 mg/kg/injection, schedule: Q01DX009 (ip), vehicle: saline with Tween-80
[13] = dose: 32.0 mg/kg/injection, schedule: Q01DX009 (ip), vehicle: saline with Tween-80
[14] = dose: 64.0 mg/kg/injection, schedule: Q01DX009 (ip), vehicle: saline with Tween-80
[15] = dose: 128.0 mg/kg/injection, schedule: Q01DX009 (ip), vehicle: saline with Tween-80
[16] = dose: 256.0 mg/kg/injection, schedule: Q01DX009 (ip), vehicle: saline with Tween-80
[17] = dose: 512.0 mg/kg/injection, schedule: Q01DX009 (ip), vehicle: saline with Tween-80
[18] = dose: 25.0 mg/kg/injection, schedule: Q01DX009 (ip), vehicle: saline with Tween-80
[19] = dose: 50.0 mg/kg/injection, schedule: Q01DX009 (ip), vehicle: saline with Tween-80
[20] = dose: 100.0 mg/kg/injection, schedule: Q01DX009 (ip), vehicle: saline with Tween-80
[21] = dose: 200.0 mg/kg/injection, schedule: Q01DX009 (ip), vehicle: saline with Tween-80
[22] = dose: 8.0 mg/kg/injection, schedule: Q01DX009 (ip), vehicle: saline with Tween-80
[23] = dose: 16.0 mg/kg/injection, schedule: Q01DX009 (ip), vehicle: saline with Tween-80
[24] = dose: 100.0 mg/kg/injection, schedule: Q01DX009 (ip), vehicle: saline
[25] = dose: 200.0 mg/kg/injection, schedule: Q01DX009 (ip), vehicle: saline

Measured: T/C

COc1cccc2c1C(=O)c1c(O)c3c(c(O)c1C2=O)C[C@@](O)(C(=O)CO)C[C@@H]3OC1CC(N)C(O)C(C)O1 (stereo partly drawn)
inactive: [1] 110 % of control | [2] 122 % of control | [3] 114 % of control | [4] 112 % of control and 116 % of control | [5] 119 % of control | [6] 94 % of control and 111 % of control | dose: 1.0 mg/kg/injection, schedule: Q01DX009 (ip), vehicle: water 115 % of control | dose: 10.0 micrograms/mouse/injection, schedule: Q01DX005 (ip), vehicle: saline 96 % of control | dose: 20.0 micrograms/kg/injection, schedule: Q01DX005 (ip), vehicle: saline 123 % of control | dose: 20.0 micrograms/mouse/injection, schedule: Q01DX005 (ip), vehicle: saline 102 % of control | dose: 40.0 micrograms/kg/injection, schedule: Q01DX005 (ip), vehicle: saline 115 % of control | dose: 40.0 micrograms/mouse/injection, schedule: Q01DX005 (ip), vehicle: saline 105 % of control

C[C@]12C=CC(=O)C=C1CC[C@@H]1[C@@H]2C(=O)C[C@@]2(C)[C@H]1CC[C@]2(O)C(=O)CO
inactive: [7] 95 % of control | [8] 98 % of control | [9] 97 % of control | [10] 92 % of control | [11] 92 % of control

O=C1C2(Cl)C3(Cl)C4(Cl)C(Cl)(Cl)C5(Cl)[C@]3(Cl)C1(Cl)[C@]5(Cl)C24Cl (stereo partly drawn)
inactive: dose: 3.12 mg/kg/injection, schedule: Q01DX009 (ip), vehicle: saline with Tween-80 112 % of control | dose: 6.25 mg/kg/injection, schedule: Q01DX009 (ip), vehicle: saline with Tween-80 118 % of control | [12] 121 % of control

Nc1ccc(C(=O)O)c(O)c1
inactive: dose: 37.5 mg/kg/injection, schedule: Q01DX009 (ip), vehicle: saline with Tween-80 116 % of control | dose: 75.0 mg/kg/injection, schedule: Q01DX009 (ip), vehicle: saline with Tween-80 116 % of control | dose: 150.0 mg/kg/injection, schedule: Q01DX009 (ip), vehicle: saline with Tween-80 108 % of control | dose: 300.0 mg/kg/injection, schedule: Q01DX009 (ip), vehicle: saline with Tween-80 101 % of control

O=c1cc[nH]c(=O)[nH]1
inactive: [13] 95 % of control and 110 % of control | [14] 96 % of control and 110 % of control | [15] 102 % of control and 105 % of control | [16] 100 % of control and 110 % of control | [17] 94 % of control and 107 % of control

O=c1ccc2ccccc2o1
inactive: [18] 118 % of control | [19] 105 % of control and 111 % of control | [20] 100 % of control and 111 % of control | [21] 113 % of control

CCN(CC)CCCC(C)Nc1c2ccc(Cl)cc2nc2ccc(OC)cc12 (stereo not drawn)
inactive: [22] 106 % of control | [23] 114 % of control | [13] 104 % of control | [14] 107 % of control

O=S(=O)(O)O
inactive: [22] 109 % of control | [23] 108 % of control | [13] 111 % of control | [14] 112 % of control

Nc1ncnc2c1ncn2C1OC(COP(=O)(O)O)C(O)C1O (stereo not drawn)
inactive: [24] 103 % of control and 107 % of control | [25] 102 % of control and 115 % of control | dose: 400.0 mg/kg/injection, schedule: Q01DX009 (ip), vehicle: saline 112 % of control

Cc1c2oc3c(C)ccc(C(=O)N[C@@H]4C(=O)N[C@H](C(C)C)C(=O)N5CCC[C@H]5C(=O)N(C)CC(=O)N(C)[C@@H](C(C)C)C(=O)O[C@H]4C)c3nc-2c(C(=O)N[C@@H]2C(=O)N[C@H](C(C)C)C(=O)N3CCC[C@H]3C(=O)N(C)CC(=O)N(C)[C@@H](C(C)C)C(=O)O[C@H]2C)c(N)c1=O (I: [aThr][dV]P[Sar][NMeV] / II: [aThr][dV]P[Sar][NMeV]; ester I:1-I:C, II:1-II:C; linker I:N-II:N via Actinocin(9to1))
inactive: dose: 0.01 mg/kg/injection, schedule: Q01DX009 (ip), vehicle: saline 111 % of control | dose: 0.02 mg/kg/injection, schedule: Q01DX009 (ip), vehicle: saline 116 % of control | dose: 0.05 mg/kg/injection, schedule: Q01DX009 (ip), vehicle: saline 101 % of control

O=C1c2c(O)ccc(O)c2C(=O)c2c(NCCNCCO)ccc(NCCNCCO)c21
inactive: [1] 108 % of control | [3] 117 % of control | [4] 123 % of control | [6] 123 % of control

O=[N+]([O-])c1ccc(Cl)c([N+](=O)[O-])c1
inactive: [7] 102 % of control | dose: 6.25 mg/kg/injection, schedule: Q02DX009 (ip), vehicle: water 117 % of control | [8] 100 % of control | dose: 12.5 mg/kg/injection, schedule: Q02DX009 (ip), vehicle: water 113 % of control | [9] 93 % of control | dose: 25.0 mg/kg/injection, schedule: Q02DX009 (ip), vehicle: water 113 % of control | [10] 105 % of control | dose: 50.0 mg/kg/injection, schedule: Q02DX009 (ip), vehicle: water 107 % of control | [11] 111 % of control | dose: 100.0 mg/kg/injection, schedule: Q02DX009 (ip), vehicle: water 107 % of control

CN(C)c1nc(N(C)C)nc(N(C)C)n1
inactive: [12] 104 % of control | [18] 90 % of control and 103 % of control | [19] 97 % of control and 102 % of control | [20] 99 % of control

Nc1ccnc(=O)[nH]1
inactive: [13] 111 % of control and 115 % of control | [14] 98 % of control and 105 % of control | [15] 104 % of control and 105 % of control | [16] 93 % of control and 105 % of control | [17] 115 % of control and 117 % of control

Nc1ncnc2nc[nH]c12
inactive: dose: 2.0 mg/kg/injection, schedule: Q01DX009 (ip), vehicle: saline with Tween-80 120 % of control | dose: 4.0 mg/kg/injection, schedule: Q01DX009 (ip), vehicle: saline with Tween-80 119 % of control | [22] 101 % of control and 108 % of control | [23] 90 % of control and 117 % of control and 120 % of control

Cc1cn(C2CC(O)C(CO)O2)c(=O)[nH]c1=O (stereo not drawn)
inactive: [13] 94 % of control and 101 % of control | [14] 103 % of control and 108 % of control | [20] 108 % of control and 112 % of control | [15] 102 % of control and 105 % of control | [21] 100 % of control and 102 % of control | [16] 95 % of control and 97 % of control | dose: 400.0 mg/kg/injection, schedule: Q01DX009 (ip), vehicle: saline with Tween-80 101 % of control and 103 % of control | [17] 102 % of control and 103 % of control | dose: 800.0 mg/kg/injection, schedule: Q01DX009 (ip), vehicle: saline with Tween-80 106 % of control and 107 % of control | dose: 1600.0 mg/kg/injection, schedule: Q01DX009 (ip), vehicle: saline with Tween-80 96 % of control and 99 % of control

CCOC(OCC)C(=O)OCC(=O)[C@]1(O)Cc2c(O)c3c(c(O)c2[C@@H](OC2CC(N)C(O)C(C)O2)C1)C(=O)c1c(OC)cccc1C3=O (stereo partly drawn)
inactive: [2] 115 % of control | dose: 0.25 mg/kg/injection, schedule: Q01DX009 (ip), vehicle: water 124 % of control | [5] 118 % of control

Cc1c2oc3c(C)ccc(C(=O)NC4C(=O)NC(C(C)C)C(=O)N5CCCC5C(=O)N(C)CC(=O)N(C)C(C(C)C)C(=O)OC4C)c3nc-2c(C(=O)NC2C(=O)NC(C(C)C)C(=O)N3CCCC3C(=O)N(C)CC(=O)N(C)C(C(C)C)C(=O)OC2C)c(N)c1=O (stereo not drawn) (I: TVP[Sar][NMeV] / II: TVP[Sar][NMeV]; ester I:1-I:C, II:1-II:C; linker I:N-II:N via Actinocin(9to1); configuration not given here)
inactive: dose: 0.03 mg/kg/injection, schedule: Q01DX009 (ip), vehicle: saline 101 % of control | dose: 0.06 mg/kg/injection, schedule: Q01DX009 (ip), vehicle: saline 107 % of control | [1] 101 % of control | [3] 119 % of control

CN(C)C=O
inactive: dose: 12.5 mg/kg/injection, schedule: Q01DX009 (ip), vehicle: saline 102 % of control | dose: 25.0 mg/kg/injection, schedule: Q01DX009 (ip), vehicle: saline 101 % of control and 105 % of control | dose: 50.0 mg/kg/injection, schedule: Q01DX009 (ip), vehicle: saline 101 % of control and 115 % of control | [24] 92 % of control and 101 % of control and 120 % of control | [25] 96 % of control and 106 % of control | dose: 800.0 mg/kg/injection, schedule: Q01DX009 (ip), vehicle: saline 116 % of control and 120 % of control | dose: 1600.0 mg/kg/injection, schedule: Q01DX009 (ip), vehicle: saline 107 % of control

— PubChem BioAssay AID302 (DTP/NCI, 2004)
